Measured values as given in ChEMBL document CHEMBL5257025, “Artemisinin-Derived Dimers: Potent Antimalarial and Anticancer Agents” (J Med Chem, 2016).

Legend:
P388 = assay: Antiproliferative activity against mouse P388 cells assessed as cell growth inhibition incubated for 72 hrs by MTT assay; assay type: functional, cell-based; conditions: P388, 72 h
HT-29 = assay: cells; conditions: Homo sapiens, HT-29, 72 h
[1] = Antiproliferative activity against human YD-10B cells assessed as cell growth inhibition measured after 72 hrs by MTT assay; assay type: functional, cell-based
MCF7 [2] = assay: Antiproliferative activity against human MCF7 cells assessed as reduction in cell viability measured after 48 hrs by SRB assay; assay type: functional, cell-based; conditions: MCF7, 48 h
BeWo = assay: Antiproliferative activity against human BeWo cells assessed as reduction in cell viability after 72 hrs by MTT assay; assay type: functional, cell-based
K562 = assay: Antiproliferative activity against human K562 cells assessed as reduction in cell viability by MTT assay; assay type: functional, cell-based
T47D = assay: Antiproliferative activity against human T47D cells assessed as inhibition of cell growth; assay type: functional, cell-based
LOX IMVI = assay: Antiproliferative activity against human LOX IMVI cells assessed as cell growth inhibition; assay type: functional, cell-based
DU-145 = assay: Antiproliferative activity against human DU-145 cells assessed as reduction in cell viability; assay type: functional, cell-based
OVCAR-3 = assay: Antiproliferative activity against human OVCAR-3 cells assessed as reduction in cell viability; assay type: functional, cell-based
A498 = assay: Antiproliferative activity against human A498 cells assessed as reduction in cell viability; assay type: functional, cell-based
SK-OV-3 = assay: Antiproliferative activity against human SK-OV-3 cells assessed as reduction in cell viability incubated for 48 hrs by MTT assay; assay type: functional, cell-based; conditions: SK-OV-3, 48 h
HL-60 = assay: Antiproliferative activity against human HL-60 cells assessed as reduction in cell viability incubated for 48 hrs by MTT assay; assay type: functional, cell-based; conditions: HL-60, 48 h
CAKI-1 = assay: Antiproliferative activity against human CAKI-1 cells assessed as reduction in cell viability after 48 hrs by SRB assay; assay type: functional, cell-based; conditions: CAKI-1, 48 h
PC-3 = assay: Antiproliferative activity against human PC-3 cells assessed as cell growth inhibition; assay type: functional, cell-based
M14 = assay: Antiproliferative activity against human M14 cells assessed as growth inhibition incubated for 72 hrs by luminescence assay; assay type: functional, cell-based; conditions: M14, 72 h
MCF7 [3] = assay: Growth inhibition of human MCF7 cells assessed as cell growth inhibition incubated for 48 hrs by MTT assay; assay type: functional
TK-10 = assay: Growth inhibition of human TK-10 cells assessed as cell growth inhibition measured after 48 hrs by MTT assay; assay type: functional
UACC-62 = assay: Growth inhibition of human UACC-62 cells assessed as cell growth inhibition measured after 48 hrs by MTT assay; assay type: functional
Plasmodium falciparum [4] = assay: Antimalarial activity against Plasmodium falciparum 3D7 assessed as inhibition of malarial growth; assay type: functional, organism-based
EL4 = assay: Antiproliferative activity against mouse EL4 cells assessed as cell growth inhibition incubated for 72 hrs by MTT assay; assay type: functional, cell-based; conditions: EL4, 72 h
SK-MEL [5] = assay: Antiproliferative activity against human SK-MEL cells assessed as reduction in cell growth inhibition; assay type: functional, cell-based
BT-549 = assay: Antiproliferative activity against human BT-549 cells assessed as reduction in cell viability incubated for 48 hrs by MTT assay; assay type: functional, cell-based; conditions: BT-549, 48 h
KB = assay: Antiproliferative activity against human KB cells assessed as reduction in cell viability incubated for 48 hrs by MTT assay; assay type: functional, cell-based
[6] = Cytotoxicity against pig LLC-PK1 cells; assay type: toxicity, cell-based, Sus scrofa; conditions: read-out: TC50 (the source's name)
Plasmodium berghei = assay: In vivo antimalarial activity against Plasmodium berghei infected mouse model assessed as survival time at 8 mg/kg, po in presence of Mefloquine hydrochloride
Plasmodium falciparum [7] = assay: Antimalarial activity against Plasmodium falciparum D10 assessed as inhibition of parasitic growth; assay type: functional, organism-based
Plasmodium falciparum [8] = assay: microbe, parasite or virus in culture; conditions: Dd2
Description: Antiplasmodial activity against Plasmodium falciparum Dd2 assessed as inhibition of parasitic growth

Plasmodium falciparum [9] = assay: microbe, parasite or virus in culture; conditions: D6
Description: Antiplasmodial activity against Plasmodium falciparum D6 assessed as inhibition of parasitic growth

Plasmodium falciparum [10] = assay: microbe, parasite or virus in culture; conditions: W2
Description: Antiplasmodial activity against Plasmodium falciparum W2 assessed as inhibition of cell growth

Plasmodium falciparum [11] = assay: microbe, parasite or virus in culture; conditions: K1
Description: Antiplasmodial activity against Plasmodium falciparum K1 assessed as inhibition of parasitic growth

[12] = Cytotoxicity against African green monkey Vero cells; assay type: toxicity, cell-based; conditions: chlorocebus sabaeus, read-out: TC50 (the source's name)
[13] = Cytotoxicity against CHO cells assessed as reduction in cell viability; assay type: toxicity, cell-based, Cricetulus griseus; conditions: chinese hamster, read-out: TC50 (the source's name)
[14] = Antiproliferative activity against human 1205Lu cells assessed as reduction in cell growth; assay type: functional, cell-based
C2G cell line = assay: Cytotoxicity against mouse C2G cells assessed as inhibition of cell growth measured after 72 hrs by MTT assay; assay type: functional, cell-based
[15] = Cytotoxicity against human HFF cells assessed as cell growth inhibition measured after 48 hrs by MTT assay; assay type: toxicity, cell-based
HCT-116 = assay: Antiproliferative activity against human HCT-116 cells assessed as growth after 48 hrs by MTT assay; assay type: functional, cell-based; conditions: HCT-116, 48 h
[16] = Cytotoxicity against rat MTLn3 cells assessed as cell growth inhibition; assay type: toxicity, cell-based
HeLa = assay: Antiproliferative activity against human Hela cells assessed as cell growth inhibition measured after 48 hrs by MTT assay; assay type: functional, cell-based
Plasmodium falciparum [17] = assay: Antimalarial activity against Plasmodium falciparum NF54 assessed as reduction in cell growth; assay type: functional, organism-based
TRAMP-C2H = assay: Cytotoxicity against mouse TRAMP-C2H cells assessed as inhibition of cell growth measured after 72 hs by MTT assay; assay type: functional, cell-based
C2D cell line = assay: Cytotoxicity against mouse C2D cell line assessed as inhibition of cell growth measured after 72 hrs by MTT assay; assay type: functional, cell-based
XF498 = assay: Antiproliferative activity against human XF498 cells assessed as reduction in cell viability incubated for 48 hrs by MTT assay; assay type: functional, cell-based; conditions: XF498, 48 h
SK-MEL [18] = assay: Antiproliferative activity against human SK-MEL cells assessed as reduction in cell viability incubated for 48 hrs by MTT assay; assay type: functional, cell-based
Ehrlich = assay: Cytotoxicity against mouse Ehrlich cells assessed as growth inhibition at 100 ug/ml; assay type: functional, cell-based
Plasmodium falciparum [19] = assay: Antimalarial activity against Plasmodium falciparum NF54 assessed as inhibition of cell growth incubated for 72 hrs by SYBR Green I staining based fluorescence analysis; assay type: functional, organism-based; conditions: NF54, 72 h
SK-MEL-2 = assay: Antiproliferative activity against human SK-MEL-2 cells assessed as reduction in cell viability incubated for 48 hrs by MTT assay; assay type: functional, cell-based; conditions: SK-MEL-2, 48 h

C[C@@H]1CC[C@H]2[C@@H](C)C(CCSCCC3O[C@@H]4O[C@]5(C)CC[C@@H]6[C@@H](C)CC[C@H]([C@@H]3C)[C@]46OO5)O[C@H]3O[C@@]4(C)CC[C@@H]1[C@]32OO4 (some centres undefined)
IC50 (P388): 640 nM
IC50 (HT-29): 390 nM
IC50 [1]: 9300 nM
IC50 (MCF7 [2]): 30 nM
IC50 (BeWo): 22800 nM

C[C@@H]1CC[C@H]2[C@@H](C)C(OCC(COC3O[C@H]4O[C@@]5(C)CC[C@H]6[C@H](C)CC[C@@H]([C@H]3C)[C@@]46OO5)OC(=O)CCC(=O)O)O[C@H]3O[C@@]4(C)CC[C@@H]1[C@]32OO4 (some centres undefined)
IC50 (K562): 200 nM
IC50 (T47D): 75 nM
IC50 (LOX IMVI): 80 nM
IC50 (DU-145): 20000 nM
IC50 (OVCAR-3): 250 nM
IC50 (A498): 20000 nM
IC50 (SK-OV-3): 25000 nM
IC50 (HL-60): 60 nM
IC50 (MCF7 [2]): 200 nM
IC50 (CAKI-1): 30000 nM
IC50 (PC-3): 40 nM
IC50 (M14): 30000 nM

C[C@@H]1CC[C@H]2[C@@H](C)C(OCCC(CCCNc3ccnc4ccc(Cl)cc34)CCOC3O[C@@H]4O[C@]5(C)CC[C@@H]6[C@@H](C)CC[C@H]([C@@H]3C)[C@]46OO5)O[C@H]3O[C@@]4(C)CC[C@@H]1[C@]32OO4 (some centres undefined)
GI50 (MCF7 [3]): 30 nM
GI50 (TK-10): 80 nM
GI50 (UACC-62): 50 nM
IC50 (Plasmodium falciparum [4]): 8.7 nM

CC(=O)O[C@H]1C(=O)[C@@]2(C)[C@H]([C@H](OC(=O)c3ccccc3)[C@]3(O)C[C@H](OC(=O)[C@H](O)[C@@H](NC(=O)c4ccccc4)c4ccccc4)C(C)=C1C3(C)C)[C@]1(OC(C)=O)CO[C@@H]1C[C@@H]2O [PACLITAXEL]
IC50 (EL4): 0.1 nM
IC50 (SK-OV-3): 0.1 nM
IC50 (SK-MEL [5]): 0.1 nM
IC50 (P388): 0.1 nM
IC50 (HT-29): 0.1 nM
IC50 [1]: 0.1 nM
IC50 (MCF7 [2]): 0.1 nM
IC50 (BT-549): 0.1 nM
IC50 (KB): 0.1 nM
CC50 [6]: 4390 nM
IC50 (BeWo): 0.1 nM

C[C@@H]1CC[C@H]2[C@@H](C)C(CC(CC3O[C@@H]4O[C@]5(C)CC[C@@H]6[C@@H](C)CC[C@H]([C@@H]3C)[C@]46OO5)C[Si](C)(C)C)O[C@H]3O[C@@]4(C)CC[C@@H]1[C@]32OO4 (some centres undefined)
survival time (Plasmodium berghei): > 57 days

C[C@H]1[C@@H](O)O[C@H]2O[C@@]3(C)CC[C@H]4[C@H](C)CC[C@@H]1[C@@]24OO3
IC50 (Plasmodium falciparum [7]): 2.09 nM
IC50 (Plasmodium falciparum [8]): 2.09 nM
IC50 (Plasmodium falciparum [9]): 2.09 nM
IC50 (Plasmodium falciparum [10]): 2.09 nM
IC50 (Plasmodium falciparum [11]): 2.09 nM
IC50 (Plasmodium falciparum [4]): 2.09 nM
CC50 [12]: 1410 nM
CC50 [13]: 148000 nM

C[C@@H]1CC[C@H]2[C@@H](C)C(OCC(COC3O[C@H]4O[C@@]5(C)CC[C@H]6[C@H](C)CC[C@@H]([C@H]3C)[C@@]46OO5)=NO)O[C@H]3O[C@@]4(C)CC[C@@H]1[C@]32OO4 (some centres undefined)
IC50 (K562): 150 nM
IC50 (T47D): 30 nM
IC50 (LOX IMVI): 55 nM
IC50 (DU-145): 15000 nM
IC50 (OVCAR-3): 200 nM
IC50 (A498): 6500 nM
IC50 (SK-OV-3): 15000 nM
IC50 (HL-60): 40 nM
IC50 (MCF7 [2]): 60 nM
IC50 (CAKI-1): 13000 nM
IC50 (PC-3): 20 nM
IC50 (M14): 15000 nM

C[C@@H]1CC[C@H]2[C@@H](C)C(CC(CO)CC3O[C@H]4O[C@@]5(C)CC[C@H]6[C@H](C)CC[C@@H]([C@H]3C)[C@@]46OO5)O[C@H]3O[C@@]4(C)CC[C@@H]1[C@]32OO4 (some centres undefined)
IC50 [14]: 4900 nM
IC50 (C2G cell line): 15.4 nM
IC50 at 48 h [15]: 48100 nM
IC50 (HCT-116): 100 nM
IC50 [16]: 43 nM
IC50 (HeLa): 1060 nM
IC50 (Plasmodium falciparum [17]): 0.87 nM
IC50 (TRAMP-C2H): 9.2 nM
IC50 (C2D cell line): 18.5 nM

C[C@@H]1CC[C@H]2[C@@H](C)C(CCC(=O)NCCCN3CCN(CCCNC(=O)CCC4O[C@H]5O[C@]6(C)CC[C@H]7[C@H](C)CC[C@@H]([C@H]4C)[C@@]57OO6)CC3)O[C@H]3O[C@]4(C)CC[C@@H]1[C@]32OO4 (some centres undefined)
IC50 (XF498): 460 nM
IC50 (SK-MEL [18]): 450 nM

C[C@H]1[C@@H](O[C@H]2O[C@H]3O[C@@]4(C)CC[C@H]5[C@H](C)CC[C@@H]([C@H]2C)[C@@]35OO4)O[C@H]2O[C@@]3(C)CC[C@H]4[C@H](C)CC[C@@H]1[C@@]24OO3
IC50 (Ehrlich): 31200 nM

C[C@H]1[C@H](CC(F)(F)c2ccc(C(F)(F)C[C@H]3O[C@H]4O[C@@]5(C)CC[C@H]6[C@H](C)CC[C@@H]([C@H]3C)[C@@]46OO5)cc2)O[C@H]2O[C@@]3(C)CC[C@H]4[C@H](C)CC[C@@H]1[C@@]24OO3
IC50 (Plasmodium falciparum [19]): 15 nM

C[C@H]1[C@@H](CC(F)(F)c2ccc(C(F)(F)C[C@H]3O[C@H]4O[C@@]5(C)CC[C@H]6[C@H](C)CC[C@@H]([C@H]3C)[C@@]46OO5)cc2)O[C@H]2O[C@@]3(C)CC[C@H]4[C@H](C)CC[C@@H]1[C@@]24OO3
IC50 (Plasmodium falciparum [19]): 28 nM

C[C@@H]1CC[C@H]2[C@@H](C)C(OCC(=O)COC3O[C@@H]4O[C@]5(C)CC[C@@H]6[C@@H](C)CC[C@H]([C@@H]3C)[C@]46OO5)O[C@H]3O[C@@]4(C)CC[C@@H]1[C@]32OO4 (some centres undefined)
IC50 (SK-MEL-2): 560 nM

C[C@@H]1CC[C@H]2[C@@H](C)C(OCCCN3CC[N+](CCCOC4O[C@@H]5O[C@]6(C)CC[C@@H]7[C@@H](C)CC[C@H]([C@@H]4C)[C@]57OO6)(CCNc4ccnc5cc(Cl)ccc45)CC3)O[C@H]3O[C@@]4(C)CC[C@@H]1[C@]32OO4 (some centres undefined)
GI50 (MCF7 [3]): 30 nM
GI50 (TK-10): 80 nM
GI50 (UACC-62): 40 nM
IC50 (Plasmodium falciparum [4]): 29.5 nM

C[C@@H]1CC[C@H]2[C@@H](C)C(CC(CC3O[C@@H]4O[C@]5(C)CC[C@@H]6[C@@H](C)CC[C@H]([C@@H]3C)[C@]46OO5)C(=O)N/N=C/c3ccccc3O)O[C@H]3O[C@@]4(C)CC[C@@H]1[C@]32OO4 (some centres undefined)
IC50 [16]: 52 nM

C[C@H]1[C@H](O[C@H]2O[C@H]3O[C@@]4(C)CC[C@H]5[C@H](C)CC[C@@H]([C@H]2C)[C@@]35OO4)O[C@H]2O[C@@]3(C)CC[C@H]4[C@H](C)CC[C@@H]1[C@@]24OO3
IC50 (Ehrlich): 3600 nM
